Earlier results, collected in US9205054B2 (LOSAN PHARMA GMBH, priority 2005, dated 2015).
Like-named read-outs stand apart in the source and are kept apart here.

Experiments:
[1] = 0.1 molar hydrochloric acid solution, after one hour

solubility (pH 1-5): under 0.1 g/l | solubility (pH 7.2): about 20 g/l | dissolved ibuprofen [1]: 10%
SMILES: CC(C)Cc1ccc(C(C)C(=O)O)cc1 (racemic) [Ibuprofen, 2-(4-isobutylphenyl)propionic acid]
